Measurements published in patent US7981443B2, “Method of treating sleep disordered breathing using topiramate” (priority 2000, dated 2011).

Legend:
[1] = system: obstructive sleep apnoea (OSA); assay: Double-blind, placebo controlled cross-over study of topiramate in patients with light to moderate OSA; format: in vivo
Procedure: A double-blind, placebo controlled cross-over study of topiramate was undertaken in 2 patients with light to moderate OSA (A/H index, 22 and 35 on previous screening). Topiramate (100 mg b.i.d or corresponding placebo) was administered for 10 days in each cross-over period. A wash-out period of one week was applied between the two treatment periods.

[2] = system: carbonic anhydrase; conditions: cited from earlier work
[3] = system: aminohydroxymethylisoxazole propionic acid (AMPA) glutamate receptor subtype site; conditions: rat hippocampal pyramidal neurones; effect at AMPA site; cited from earlier work
[4] = system: N-methyl-D-aspartate (NMDA) mediated glutamate receptor subtype site; conditions: cited from earlier work
[5] = system: voltage-gated sodium electrogenesis; conditions: specific action on voltage-gated sodium electrogenesis in certain areas of the nervous system; cited from earlier work
[6] = system: glutamate in the hippocampus; conditions: in vivo; cited from earlier work

CC1(C)O[C@@H]2[C@@H](CO[C@@]3(COS(N)(=O)=O)OC(C)(C)O[C@@H]23)O1 [topiramate, 2,3:4,5-di-o-isopropylidene-β-D-fructopyranose sulfamate]
Blood pressure ([1]; between the two study nights (topiramate vs placebo)): did not differ | Side effects ([1]; during the study period): No side effects were reported | A/H index during topiramate ([1]; first patient (placebo 24), 100 mg b.i.d for 10 days): 9 | A/H index during topiramate ([1]; second patient (placebo 33), 100 mg b.i.d for 10 days): 6 | Daytime sleepiness ([1]; spontaneous reporting by both patients, 100 mg b.i.d for 10 days): markedly reduced | Inhibition of the enzyme carbonic anhydrase [2]: weakly inhibit | Kainate-elicited excitatory response [3]: blocked | Effect at the NMDA mediated glutamate receptor subtype site [4]: had no effect | Cellular activity / cellular bursting activity [5]: dose-dependently reduce cellular activity | Abnormally high concentrations of glutamate in the hippocampus [6]: reduce
